The source of these data is patent US12064426B2, “Selective inhibitors of ROCK1 and ROCK2 protein kinases and uses thereof” (GENOSCO Inc., priority 2021, dated 2024).

For orientation: IC50 means the concentration that inhibits the measured activity by half.

Assay [1] has as its target T1, Recombinant ROCK1 (amino acids 1-477) (Homo sapiens, UniProt Q13464).
T1 construct: Recombinant ROCK1 (amino acids 1-477); by word order, ROCK1 from Carna Biosciences
As to the kind of experiment: ROCK inhibition assay, LANCE Ultra TR-FRET kinase assay (ROCK1). Type of assay: biochemical. The conditions noted are these: 1 μM ATP, 50 nM ULight-CREBtide substrate. The protocol: (§1) Kinase IC50 was determined through an in vitro assay based on LANCE Ultra TR-FRET (Time-Resolved Fluorescence Resonance Energy Transfer) homogeneous technologies method (Perkin Elmer). Recombinant ROCK1 (amino acids 1-477) and ROCK2 (amino acids 5-554) proteins were purchased from Carna Biosciences and SignalChem. Compound activities were measured by Envision and IC50s were calculated. The assays were performed in white LUMITRAC™ 200 96 well half-area microplates from Greiner Bio-One. The kinase reaction buffer consisted of 50 mM HEPES pH 7.5, 1 mM EGTA, 10 mM MgCl2, 2 mM DTT and 0.01% Tween-20. Kinases were incubated with 50 nM (ULight-CREBtide) substrate in the presence of 1 (ROCK1) or 4 (ROCK2) μM ATP. The kinase reaction was carried out for 1 hour before addition of a stopping buffer to a final of 10 mM EDTA and 0.6 nM of LANCE Ultra Europium anti-phospho-CREB (Ser133) antibody (PerkinElmer TRF0200) in LANCE detection buffer. All assay incubations were performed at room temperature, and the microplates were sealed with polyester film during that time. The reaction was incubated for 1 hour, and the signal was read in Envision in TR-FRET mode (excitation at 320 nm and emission at 615/665 nm).
(§2) As used herein, a way to describe potency of inhibitory activity (nM) is a value of inhibitory activity at 50% (IC50).

The target in assay [2] is T2, Recombinant ROCK2 (amino acids 5-554) (Homo sapiens, UniProt O75116).
T2 construct: ROCK2 (amino acids 5-554); by word order, ROCK2 from SignalChem
As to the kind of experiment: ROCK inhibition assay, LANCE Ultra TR-FRET kinase assay (ROCK2). Type of assay: biochemical. The conditions noted are these: 4 μM ATP, 50 nM ULight-CREBtide substrate. The protocol:
as §1, §2
On the technique in general: In TR-FRET formats the signal depends on donor and acceptor labels being close together.

T1 sequence (Q13464 1-477): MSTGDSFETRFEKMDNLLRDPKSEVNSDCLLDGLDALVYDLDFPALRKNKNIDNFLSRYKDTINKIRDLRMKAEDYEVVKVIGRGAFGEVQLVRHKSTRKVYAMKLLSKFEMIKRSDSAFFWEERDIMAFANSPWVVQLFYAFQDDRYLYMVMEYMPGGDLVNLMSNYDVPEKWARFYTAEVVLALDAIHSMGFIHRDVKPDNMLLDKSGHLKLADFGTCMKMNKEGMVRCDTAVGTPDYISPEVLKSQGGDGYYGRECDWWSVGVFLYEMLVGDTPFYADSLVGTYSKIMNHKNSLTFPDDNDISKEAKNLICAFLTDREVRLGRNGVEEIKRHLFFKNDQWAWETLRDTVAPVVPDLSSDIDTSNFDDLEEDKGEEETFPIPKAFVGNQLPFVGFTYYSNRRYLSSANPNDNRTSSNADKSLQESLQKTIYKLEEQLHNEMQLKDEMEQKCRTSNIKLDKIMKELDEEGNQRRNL
T2 sequence (O75116 5-554): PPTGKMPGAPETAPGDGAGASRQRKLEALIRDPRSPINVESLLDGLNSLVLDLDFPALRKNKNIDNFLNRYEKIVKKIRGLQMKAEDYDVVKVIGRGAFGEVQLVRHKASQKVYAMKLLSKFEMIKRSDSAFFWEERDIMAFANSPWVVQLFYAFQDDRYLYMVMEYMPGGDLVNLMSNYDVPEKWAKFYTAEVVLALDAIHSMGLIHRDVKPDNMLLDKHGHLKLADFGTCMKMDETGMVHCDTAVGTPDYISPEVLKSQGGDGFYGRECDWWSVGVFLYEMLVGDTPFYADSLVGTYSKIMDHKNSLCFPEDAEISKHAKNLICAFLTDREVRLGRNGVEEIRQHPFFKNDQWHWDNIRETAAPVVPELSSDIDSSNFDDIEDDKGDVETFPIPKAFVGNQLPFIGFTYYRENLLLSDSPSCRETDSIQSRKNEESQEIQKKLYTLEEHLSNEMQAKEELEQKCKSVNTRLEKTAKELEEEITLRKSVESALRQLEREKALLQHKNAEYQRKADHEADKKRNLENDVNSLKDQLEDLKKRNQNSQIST

With `Cc1nocc1-c1ccc2c(=O)n(Cc3cccc(C(=O)NC4CCN(C5COC5)CC4)c3)ccc2c1` [Compound 88], the IC50 in assay [1] fell in the range of 101 to 500 nM; in assay [2], 10 to 100 nM.

Regarding `[2H]C([2H])([2H])NC(=O)c1cc(F)cc([C@@H](C)n2cnc3cc(-c4cn[nH]c4C(F)(F)F)ccc3c2=O)c1` [Compound 455], the figures for the IC50 in assay [1] and in assay [2] were 11 to 100 nM and under 10 nM, respectively.

Take `Cc1n[nH]cc1-c1ccc2c(=O)n(Cc3cccc(C(=O)Nc4ccc(S(N)(=O)=O)cc4)c3)ccc2c1` [Compound 36]: the IC50 in assay [1] was over 501 nM; in assay [2], 100 to 500 nM.

In the case of `Cn1nccc1-c1ccc2c(=O)n(Cc3cc(F)cc(C(=O)NC4CCOCC4)c3)ccc2c1` [Compound 166], the IC50 in assay [1] lay in the range of 101 to 500 nM; in assay [2], 10 to 100 nM.

Consider `Nc1cc(-c2ccc3c(=O)n(Cc4cccc(C(=O)NC5COC5)c4)cnc3c2)ccn1` [Compound 434], for which the IC50 in assay [1] lay within 101 to 500 nM; in assay [2] it was 10 to 100 nM.

Consider `Cc1nocc1-c1ccc2c(=O)n(Cc3cc(F)cc(C(=O)Nc4ccc5c(c4)CNCC5)c3)ccc2c1` [Compound 160], for which the IC50 is 11 to 100 nM in assay [1] and under 10 nM in assay [2].

Turning to `Cc1n[nH]cc1-c1cc2ccn(Cc3cc(F)cc(C(=O)NCC4CCN(C)CC4)c3)c(=O)c2cn1` [Compound 256], the half-inhibitory concentration (IC50) in assay [1] and in assay [2] was under 10 nM in each case.

Take `[2H]C([2H])([2H])NC(=O)c1cccc(Cn2cnc3cc(-c4ccnn4C)ccc3c2=O)c1` [Compound 425]: the IC50 in assay [1] was 11 to 100 nM; in assay [2] it was under 10 nM.

As to `CNC(=O)c1cc(F)cc(Cn2ccc3cc(-c4ccnc(N)c4)ncc3c2=O)c1` [Compound 251], the IC50 in assay [1] was 101 to 500 nM; in assay [2], 10 to 100 nM.

For the compound `Cc1nocc1-c1ccc2c(=O)n(C(CN)c3cccc(Cl)c3)cnc2c1` (centres unmarked) [Compound 497], the IC50 in assay [1] is 11 to 100 nM; in assay [2] it was under 10 nM.

For the compound `Cn1nccc1-c1ccc2c(=O)n(Cc3cccc(C(=O)NCC4CC(O)C4)c3)ccc2c1` (centres unmarked) [Compound 167], the IC50 is 11 to 100 nM in assay [1] and under 10 nM in assay [2].

Regarding `Cc1nocc1-c1cc2ccn(Cc3cc(F)cc(C(=O)NCCN4CCOCC4)c3)c(=O)c2cn1` [Compound 267], the results for the IC50 in assay [1] and in assay [2] were 11 to 100 nM and under 10 nM, respectively.

For `NCC(c1cccc(C(N)=O)c1)n1cnc2cc(-c3cn[nH]c3Cl)ccc2c1=O` (centres unmarked) [Compound 508], the figures for the IC50 in assay [1] and in assay [2] were over 501 nM and 100 to 500 nM, respectively.

Turning to `CNC(=O)c1cccc(Cn2cc(CCO)c3cc(-c4cn[nH]c4Cl)ccc3c2=O)c1` [Compound 550], the IC50 in assay [1] is 11 to 100 nM; in assay [2], under 10 nM.

Take `CNC(=O)c1cccc(C(C)n2cnc3cc(-c4ccnn4C)ccc3c2=O)c1` (centres unmarked) [Compound 426]: the IC50 in assay [1] is 11 to 100 nM; in assay [2], under 10 nM.

On to `COc1cc(F)cc(Cn2cnc3cc(-c4c[nH]nc4C(F)F)ccc3c2=O)c1` [Compound 360], for which the values for the IC50 in assay [1] and in assay [2] were 11 to 100 nM and under 10 nM, respectively.

Turning to `CN1CCC(CNC(=O)c2cccc(Cn3ccc4cc(N5CCOCC5)ccc4c3=O)c2)CC1` [Compound 218], the figures for the IC50 in assay [1] and in assay [2] were 101 to 500 nM and 10 to 100 nM, respectively.

With `CNC(=O)c1cccc([C@@H](C)n2cnc3cc(-c4cn[nH]c4N)ccc3c2=O)c1` [Compound 518], the IC50 in assay [1] is 11 to 100 nM; in assay [2] it was under 10 nM.

Turning to `CNC(=O)c1cc(Cn2ccc3cc(-c4conc4C)ccc3c2=O)ccn1` [Compound 313], the IC50 is over 501 nM in assay [1] and 100 to 500 nM in assay [2].

In the case of `CN1CCC(CNC(=O)c2cccc(Cn3cnc4cc(-c5cn[nH]c5C(F)F)ccc4c3=O)c2)CC1` [Compound 395], the IC50 in assay [1] and in assay [2] was under 10 nM throughout.

For the compound `CNC(=O)c1cc(F)cc(Cn2cc(Cl)c3cc(-c4conc4C)ccc3c2=O)c1` [Compound 318], the figures for the IC50 in assay [1] and in assay [2] were 11 to 100 nM and under 10 nM, respectively.

As for `CNC(=O)c1cc(F)cc(Cn2ccc3cc(-c4cn[nH]c4C(F)(F)F)ncc3c2=O)c1` [Compound 246], the IC50 is 11 to 100 nM in assay [1] and under 10 nM in assay [2].
